Assay results as given in a melting point compilation (Tetko et al.; mined from patent text by program, amines drawn as free bases though some values may be those of a salt).

Structure (SMILES) | melting point
COc1cc(OC)c2cc(-c3cc(OC)c(OC)c(OC)c3)oc2c1 | 131 to 132 °C
C[C@H](NC(=O)C(CSC(=O)c1ccccc1)SC(=O)c1ccccc1)C(=O)N1CCC[C@H]1C(=O)O (stereo partly drawn) | 185 to 186 °C
CCOC(=O)c1cc(OCc2ccccc2)c2nc(C3CC3)n(C)c2c1 | 120 °C
COC(=O)c1cc(C(=O)c2c(C)c(NC(=O)c3cccc(OC(C)=O)c3)c3ccccn23)ccc1N | 210 °C
Cc1ccc2c(CC(=O)O)c(C(=O)c3ccc(Cl)cc3)[nH]c2c1 | 193 to 195 °C
COc1ccc(C2=NNC(=O)[C@H]3CC=CC[C@@H]23)cc1Cl (relative stereo) | 183 to 185 °C
Cc1nc2c3c(ccc2n1C)C(=O)CC(c1ccccc1)O3 (stereo not drawn) | 201 to 202 °C
O=C1C=c2cc3c(cc2CC1=O)=CCO3 | 158 to 160 °C
O=C1C=CC(=O)c2nccnc21 | 172 to 173 °C
Cc1cc(-c2cccs2)ccc1C(=O)c1cccc2c1Nc1ncccc1CN2 | 118 to 120 °C
CCOc1ccccc1CN1CCC(=O)C(C(c2ccc(F)cc2)c2ccc(F)cc2)C1 (stereo not drawn) | 137 to 138 °C
CS(=O)(=O)c1ccc(-n2nc(CNC(=O)Nc3cccc(C(F)(F)F)c3)cc2-c2ccccc2)cc1 | 108 to 113 °C
CCCCc1nc2cc(-c3ccccc3)cc(C(=O)OC)c2n1Cc1ccccc1Cl | 103 to 105 °C
Cc1nc2n(c(=O)c1CCN1CCC(C(O)c3ccc(F)cc3)CC1)CCS2 (stereo not drawn) | 204 °C
COc1ccc(-c2nc(N)ncc2-c2ccc(=O)[nH]n2)cc1 | 142 °C
CCS(=O)CCON=Cc1nn(-c2c(Cl)cc(C(F)(F)F)cc2Cl)c(N)c1S(C)=O (stereo not drawn) | 144 to 148 °C
O=C(Nc1ccc(C(=O)N2Cc3ccccc3Cc3ccccc32)cc1)c1cc(Cl)cc(Cl)c1Cl | 225 to 230 °C
CSC1=Nc2cc(Cl)ccc2Nc2cscc21 | 111 to 113 °C
C=C1OC(=NO)C(c2ccccc2)C(=O)N1C(C)(C)C(=O)Nc1cc(Cl)cc(Cl)c1 (stereo not drawn) | 208 to 210 °C
Cc1nc(N2CCN(Cc3ccccc3)C2=N)sc1C(=O)NCc1ccc(F)c(F)c1 | 140 to 142 °C
CS(=O)(=O)c1nccc(-c2nc(=O)c3ccccc3s2)n1 | 270 °C
O=S(=O)(Nc1cccnc1Nc1ccccc1)c1ccccc1Cl | 140 to 141 °C
COc1ccc2cc(C(=O)O)oc2c1 | 208 to 211 °C

Structure (SMILES) | melting point
C[C@]1(CN2CCN(c3cc(-c4ccccc4)nc(-c4ccccc4)n3)CC2)Cn2cc([N+](=O)[O-])nc2O1 | 202 to 205 °C
NCc1ccc(N2CC(C(=O)O)OC2=O)cc1 (stereo not drawn) | 211 to 212 °C
NNC(=O)c1ccnc2[nH]c(CCc3ccccc3)cc12 | 233 to 234 °C
O=C1NC(=O)C(=Cc2ccc(OC3CCN(c4ccccn4)CC3)cc2)S1 | 218 to 220 °C
Cc1ccc(C(=O)c2c(Br)cc(CC(=O)O)n2C)cc1 | 155 to 157 °C
O=C1c2[nH]c3cc(-c4ccccc4)nn3c(=O)c2CCN1C1CCCCC1 | > 320 °C
Cc1nc(-c2cccc(Cl)c2)c2cc(C(=O)c3ccc(Cl)cc3)ccc2n1 | 182 °C
CCOC(=O)c1cn(CCc2ccccc2)nc1N | 76.9 to 78.6 °C
CCCC(=NOCC)C1=C(O)CC(c2c(OC)nc(C)c3c2CCCC3=O)CC1=O (stereo not drawn) | 162 °C
COc1ccc2nc(COc3ccc(NC(C)=O)cc3)sc2c1 | 145 to 147 °C
Oc1c(Cl)cc(-c2ccco2)cc1Cl | 68 to 70 °C
C[C@H]1c2cc(F)ccc2-c2ccc(F)cc2N1S(=O)(=O)c1ccc(O)cc1 | 194 to 196 °C
CCC(CC)OCc1c(-c2ccc(OC(F)F)c(OC3CC3)c2)[nH]c2cn[nH]c(=O)c12 | 133 to 162 °C
CC(C(=O)O)c1cccs1 (stereo not drawn) | 75 to 75.5 °C
O=C1N(Cc2ccccn2)c2cccc(-c3cncnc3)c2C12COc1cc3c(cc12)CCO3 (stereo not drawn) | > 200 °C
CCOC(=O)CCc1ccc(OCc2nc(-c3ccco3)oc2C)c(OC)c1 | 88 to 89 °C
CN(C(Cc1ccc(O)cc1)CN1CCN(c2ccccc2)CC1)S(=O)(=O)c1cccc2cnccc12 (stereo not drawn) | 201 °C
Cc1oc(-c2ccccc2)nc1COc1ccc(Cn2cc(CCCCC(=O)O)c(-c3ccccc3)n2)cc1 | 109 to 110 °C
C1=C(c2c[nH]c3ncccc23)CCN(CCOc2cccc3ncccc23)C1 | 202 to 205 °C
NC(=O)COc1ccc2c(-c3ccccc3F)noc2c1Cl | 172 °C
CN1CCN(C2=Nc3cc(Br)ccc3N3CCc4cc(Br)cc2c43)CC1 | 215 to 216 °C
COc1cccc2c1C(=O)c1c(OC)cc(-c3nnn[nH]3)cc1C2=O | 262 to 264 °C
C=CCN(CC=C)c1nc(NC(=O)OCC(C)C)n2oc(=O)nc2n1 | 161 to 163 °C

Structure (SMILES) | melting point
Cn1cccc1C(=O)c1cc([N+](=O)[O-])ccc1Cl | 108 to 110 °C
CCCCCCCCCCCCCCCCOCCOCCOC(=O)NCc1ccccn1 | 57 to 59 °C
Cn1c(COc2ccc(CC3SC(=O)N(C(c4ccccc4)(c4ccccc4)c4ccccc4)C3=O)cc2)nc2ccc(Oc3ccc(C#N)cc3)cc21 (stereo not drawn) | 135 to 138 °C
CCOC(=O)CN(C)CCCNC(=O)C=CC(=O)Nc1ccc2ncnc(Nc3cccc(Br)c3)c2c1 | 278 to 279 °C
COC(=O)C12Cc3cc(Cl)ccc3C1=NN(C(=O)N(C)c1ccc(OC(F)(F)F)cc1)CO2 (stereo not drawn) | 130 to 131 °C
CCCc1csc(/C=C/c2cccc(NCCCC(=O)O)c2)n1 | 115 to 116 °C
C/C(=N\OCCOc1ccc(C(=O)O)c(O)c1)c1ccc(C(C)(C)C)cc1 | 157 to 159 °C
O=c1[nH]c2ccccc2n1CCCN1CCC(OC(c2ccccc2)c2ccccc2)CC1 | 149 °C
O=C1CCCNC12CCCCC2 | 55 °C
O=S(=O)(c1ccc(F)cc1)N1CCCC1c1cccs1 (racemic) | 97 °C
CCN(CC)Cc1nc(-c2ncn3c2[C@@H]2CCCN2C(=O)c2c(Cl)cccc2-3)no1 | 151 to 153 °C
COc1ccc(Nc2ccc(Nc3ncnc4cc(-c5ccccc5[N+](=O)[O-])sc34)cc2)cc1 | 228 to 237 °C
CCNc1nc2ccc(CCc3ncc[nH]3)cc2o1 | 204 to 206 °C
O=C(Cc1cccc(Cl)c1F)c1ccc(F)c(Cl)c1 | 109 to 111 °C
O=C(Nc1ccc(F)c(NC(=S)Nc2cccc(C(F)(F)F)c2)c1)c1ccc(Cl)c(Cl)c1 | 172 to 174 °C
COc1ccc2c(c1OS(=O)(=O)C(F)(F)F)COCc1cc(OC)c(OC)c(OC)c1-2 | 164 °C
COc1ccc(N2CCOCC2)cc1NC(=S)c1nc2ccc(C)nc2[nH]1 | 189 to 191 °C
CCCCC(=O)N(Cc1ccc2c(c1)CCc1ccccc1N2CC#N)C(C(=O)O)C(C)C (stereo not drawn) | 82 °C
CC(C)(C)OC(=O)NCCOc1noc2ccc(F)cc12 | 104 to 105 °C
CCCC(C)(Br)C(=O)Nc1ccc(C(C)C)cc1 (stereo not drawn) | 87.2 to 88.2 °C
CC1(CO)COC(Cn2ccnc2)(c2ccc(Cl)cc2Cl)OC1 (stereo not drawn) | 174 to 175 °C
N#CCCNC(=O)c1n[nH]cc1NC(=O)c1ccc2c(c1)CCO2 | 206 to 207 °C
